# From patent publication US10717090B2, “Depression of copper and iron sulfides in molybdenite flotation circuits” (TESSENDERLO KERLEY, INC., priority 2014, dated 2020)
# Assays:
# [1] = tested on: mammals; settings: cited from earlier work
# [2] = H2S evolution vs. pH in simulated flotation process (headspace analysis); format: physicochemical; settings: pH adjusted to between 9 and 9.5, ambient temperature
# Method: The H2S evolution due to the decomposition of depressant reagents during storage, handling and application presents the highest associated hazard with regards to health and safety (HSE). Testing of TKI's Alkaline Polysulfide products against the standard (NaHS reagent) was conducted in a simulated flotation process using lab apparatus to determine the amount of H2S evolved at various pH's. The tests were conducted using the following testing protocol; • All tests were ran at ambient temperatures using tap water. Add 500 ml of tap water to […] glass apparatus, check pH and temp, start and maintain stirring throughout test. • Add Ca(OH)2 to raise pH to approximately 10.5 • Add 5 mL of reagent. • Allow to stabilize for 2 min, with cracking of stopper to equilibrate at 1 min. • Check pH, temperature and H2S in VP using analyzer. • Add H2SO4 to decrease pH to ˜9. • Allow to stabilize for 2 min, with cracking of stopper to equilibrate at 1 min. • Check pH, temperature and H2S in VP using analyzer. • Repeat last three Steps for pH 9, 8 and 7 if applicable.
# Note the H2S in the vapor phase above the polysulfide samples increased to 1500 ppm at pH near 8.2, while this 1500 ppm level was reached by NaHS samples at pH 9.1 to 9.3. […] This would translate into a less hazardous environment in applications where the process is run ran at lower pH's (˜9) utilizing for example CO2 as a flotation medium or modifying agent.
# Values above 1500 ppm are lower limits, as the H2S meter maximum reading was 2000 PPM. […] Therefore, this invention may show significant health and safety benefits even at pH near 8.
Compound,LD50 [1],H2S in vapor phase [2]
Calcium Polysulfide [CaPS],about 0.8 grams per kilogram of body weight,remained low
"S [NaHS, Sodium hydrosulfide, reference compound]",–,1500 ppm
Sodium Polysulfide [NaPS],–,remained low
Potassium Polysulfide [KPS],–,presumably KPS remained low
